Measurements: patent US20100075965A1, “PI3 KINASE INHIBITORS AND METHODS OF THEIR USE” (Novartis AG, priority 2006, published 2010)
Where two headings read alike, the source gives them in different places.

Experiments:
[1] = molecular target: PI3 K Alpha (Homo sapiens, UniProt P42336); experiment: PI3 kinase phosphorylation assays (homogenous solution phase, one step solid phase, ATP depletion/KinaseGlo); format: biochemical
[2] = system: A2780 cells; experiment: Viability assay in A2780 (Cell Titer Glo); format: cell-based, human; conditions: Homo sapiens
How it was run: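 EC50 values come from Cell Titer Glo luminescence after 72 hrs of compound exposure at 37° C, run in duplicate. A2780 cells were plated at 1,000 per well in DMEM with 10% FBS and dosed with 3-fold serial dilutions.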

[3] = system: pSer473-Akt in A2780 cells; experiment: pSer473 Akt assay to monitor PI3K pathway in A2780 cells (MSD); format: cell-based; conditions: Homo sapiens
Method: In this method, an assay for measuring the PI3K-mediated pSer^473-Akt status after treatment with representative inhibitor compounds of the preferred embodiments is described.
A2780 cells were cultured in DMEM supplemented with 10% FBS, L-glutamine, sodium pyruvate, and antibiotics. Cells were plated in the same medium at a density of 15,000 cells per well into 96 well tissue culture plates, with outside wells vacant, and allowed to adhere overnight.
Test compounds supplied in DMSO were diluted further into DMSO at 500 times the desired final concentrations before dilution into culture media to 2 times the final concentrations. Equal volumes of 2× compounds in media were added to the cells in 96 well plates and incubated at 37° C. for one hour. The media and compounds were then removed, the plates chilled and cells lysed in a lysis buffer (150 mM NaCl, 20 mM Tris pH 7.5, 1 mM EDTA, 1 mM EGTA, 1% Triton X-100) supplemented with phosphatase and protease inhibitors. After thorough mixing, lysates were transferred to both pSer473Akt and total Akt assay plates from Meso Scale Discovery (MSD), and incubated overnight with shaking at 4° C. The plates were washed with 1×MSD wash buffer and the captured analytes detected with secondary antibodies. After incubation with the secondary antibody at room temperature for 1-2 hours, the plates were washed again and 1.5× concentration of Read Buffer T (MSD) was added to the wells.
The assays were read on a SECTOR Imager 6000 instrument (Meso Scale Discovery). Ratios of the signal from pSer473Akt and total Akt assays were used to correct for any variability and the percent inhibition of pSer473Akt from the total signal seen in cells treated with compound versus DMSO alone was calculated and used to determine EC50 values for each compound as shown in Tables 1 and 2 in the column labeled “A2780 pAKT473 EC50”.

[4] = A2780 cells, read-out: A2780 Cell prolif. EC50
[5] = A2780 cells, read-out: A2780 pAKT 473 EC50

Chain of PI3 K Alpha (P42336 whole entry): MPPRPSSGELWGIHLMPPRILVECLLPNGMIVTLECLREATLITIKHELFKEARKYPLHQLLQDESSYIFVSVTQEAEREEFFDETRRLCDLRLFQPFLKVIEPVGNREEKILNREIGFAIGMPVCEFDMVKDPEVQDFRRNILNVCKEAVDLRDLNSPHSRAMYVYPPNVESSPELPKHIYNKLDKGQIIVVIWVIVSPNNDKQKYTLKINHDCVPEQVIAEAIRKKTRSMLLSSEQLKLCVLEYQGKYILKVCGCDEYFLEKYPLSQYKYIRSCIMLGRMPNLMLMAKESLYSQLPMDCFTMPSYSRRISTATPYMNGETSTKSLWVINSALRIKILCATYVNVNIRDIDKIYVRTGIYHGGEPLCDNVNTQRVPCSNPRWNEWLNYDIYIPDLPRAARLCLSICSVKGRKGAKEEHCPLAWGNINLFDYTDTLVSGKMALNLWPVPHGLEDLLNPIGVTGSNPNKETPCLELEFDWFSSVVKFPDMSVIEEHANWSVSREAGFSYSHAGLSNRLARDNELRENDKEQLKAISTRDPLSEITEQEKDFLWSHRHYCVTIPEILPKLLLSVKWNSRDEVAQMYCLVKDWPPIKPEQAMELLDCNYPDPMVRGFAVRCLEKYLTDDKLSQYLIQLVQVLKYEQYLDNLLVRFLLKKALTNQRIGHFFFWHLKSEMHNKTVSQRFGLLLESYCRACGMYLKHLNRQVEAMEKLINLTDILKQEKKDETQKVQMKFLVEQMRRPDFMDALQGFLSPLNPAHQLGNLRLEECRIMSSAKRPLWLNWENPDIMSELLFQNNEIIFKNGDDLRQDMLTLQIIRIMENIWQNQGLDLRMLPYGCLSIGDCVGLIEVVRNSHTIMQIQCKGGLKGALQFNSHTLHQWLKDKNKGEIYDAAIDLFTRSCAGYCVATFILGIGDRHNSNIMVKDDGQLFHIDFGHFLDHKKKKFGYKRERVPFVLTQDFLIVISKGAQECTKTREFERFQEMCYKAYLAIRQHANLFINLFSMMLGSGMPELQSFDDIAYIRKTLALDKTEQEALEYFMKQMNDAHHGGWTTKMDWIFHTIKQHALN
Chain of PI3 K Alpha (P27986 whole entry partner): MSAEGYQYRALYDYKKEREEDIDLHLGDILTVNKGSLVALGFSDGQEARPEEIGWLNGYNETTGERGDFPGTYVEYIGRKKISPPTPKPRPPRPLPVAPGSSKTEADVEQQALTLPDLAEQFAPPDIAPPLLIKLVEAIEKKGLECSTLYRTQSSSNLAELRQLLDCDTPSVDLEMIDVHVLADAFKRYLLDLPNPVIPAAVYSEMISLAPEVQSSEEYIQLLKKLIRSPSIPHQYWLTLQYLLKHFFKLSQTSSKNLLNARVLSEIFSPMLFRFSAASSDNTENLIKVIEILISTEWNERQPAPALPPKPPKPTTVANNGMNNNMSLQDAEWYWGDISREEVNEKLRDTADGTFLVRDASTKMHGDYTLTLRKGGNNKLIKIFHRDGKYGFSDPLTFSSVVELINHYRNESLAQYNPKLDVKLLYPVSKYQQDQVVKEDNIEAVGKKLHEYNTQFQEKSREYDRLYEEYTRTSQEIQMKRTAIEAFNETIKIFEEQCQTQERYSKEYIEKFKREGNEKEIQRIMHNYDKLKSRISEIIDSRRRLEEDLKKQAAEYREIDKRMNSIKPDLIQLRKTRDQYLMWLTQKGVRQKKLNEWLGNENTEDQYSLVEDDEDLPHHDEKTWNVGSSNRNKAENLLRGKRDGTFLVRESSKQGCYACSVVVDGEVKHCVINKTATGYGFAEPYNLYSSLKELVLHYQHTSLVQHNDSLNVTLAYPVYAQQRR

| SMILES | IC50 ([1]; read-out: PI3K Alpha IC50) [nM] | EC50 [2, 4] [nM] | EC50 [3, 5] [nM] | IC50 [1] [nM] | EC50 ([2]; A2780, read-out: A2780 Cell prolif. EC50) [nM] | EC50 ([3]; A2780, read-out: A2780 pAKT 473 EC50) [nM] |
| --- | --- | --- | --- | --- | --- | --- |
| Nc1ncc(-c2ccc3nc(NC(=O)CCCO)cn3c2)cc1C(F)(F)F [Example 27, N-[6-(6-Amino-5-trifluoromethyl-pyridin-3-yl)-imidazo[1,2-a]pyridin-2-yl]-4-hydroxy-butyramide] | < 1000 | < 10000 | < 1000 |  |  |  |
| CC(=O)Nc1cn2cc(-c3cnc(N)c(F)c3)ccc2n1 [Example 28, N-[6-(6-Amino-5-fluoro-pyridin-3-yl)-imidazo[1,2-a]pyridin-2-yl]-acetamide] | < 1000 | < 25000 | < 1000 |  |  |  |
| CC(=O)Nc1cn2cc(-c3cnc(N)cc3F)ccc2n1 [Example 29, N-[6-(6-Amino-4-fluoro-pyridin-3-yl)-imidazo[1,2-a]pyridin-2-yl]-acetamide] | < 1000 | < 25000 | < 10000 |  |  |  |
| CCN(CC)CC#Cc1c(NC(C)=O)nc2ccc(-c3cnc(N)c(C(F)(F)F)c3)cn12 [Example 30, N-[6-(6-Amino-5-trifluoromethyl-pyridin-3-yl)-3-(3-diethylamino-prop-1-ynyl)-imidazo[1,2-a]pyridin-2-yl]-acetamide] | < 1000 | < 10000 | < 1000 |  |  |  |
| CC(=O)Nc1nc2ccc(-c3cnc(N)c(C(F)(F)F)c3)cn2c1C#N [Example 32, N-[6-(6-Amino-5-trifluoromethyl-pyridin-3-yl)-3-cyano-imidazo[1,2-a]pyridin-2-yl]-acetamide] | < 1000 | < 1000 | < 1000 |  |  |  |
| COc1cc(-c2ccc3nc(NC(C)=O)cn3c2)c(C)nc1N [Example 33, N-(6-(6-amino-5-methoxy-2-methylpyridin-3-yl)imidazo[1,2-a]pyridin-2-yl)acetamide] | > 25000 | < 10000 | < 25000 |  |  |  |
| CC(=O)Nc1cn2cc(-c3cnc(N)c(-c4ccc(N5CCOCC5)cc4)c3)ccc2n1 [Example 39, N-(6-(6-amino-5-(4-morpholino-phenyl)pyridin-3-yl)imidazo[1,2-a]pyridin-2-yl)acetamide] | < 10000 | < 10000 | < 10000 |  |  |  |
| COc1ccc(CC(=O)Nc2cn3cc(-c4cnc(N)c(C(F)(F)F)c4)ccc3n2)cc1OC [Example 51] | < 1000 | < 10000 | < 1000 |  |  |  |
| CC(=O)Nc1cn2nc(-c3cnc(N)c(-c4ccccc4C(F)(F)F)c3)ccc2n1 [Example 53, N-(6-(6-amino-5-(2-(trifluoromethyl)phenyl)pyridin-3-yl)imidazo[1,2-b]pyridazin-2-yl)acetamide] | < 1000 | < 1000 | < 1000 |  |  |  |
| CC(=O)Nc1cn2cc(-c3cnc(N)c(/C=N/Nc4ccccc4)c3)ccc2n1 [Example 58, (E)-N-(6-(6-amino-5-((2-phenylhydrazono)methyl)pyridin-3-yl)imidazo[1,2-a]pyridin-2-yl)acetamide] | < 1000 | < 1000 | < 10000 |  |  |  |
| Nc1ncc(-c2ccc3nc(NC(=O)CCC4CCCCN4)cn3n2)cc1C(F)(F)F (stereo not drawn) [Example 59, N-(6-(6-amino-5-(trifluoromethyl)pyridin-3-yl)imidazo[1,2-b]pyridazin-2-yl)-3-(piperidin-2-yl)propanamide] | < 1000 | < 1000 | < 1000 |  |  |  |
| CNCC(=O)Nc1cn2nc(-c3cnc(N)c(C(F)(F)F)c3)ccc2n1 [Example 60, N-(6-(6-amino-5-(trifluoromethyl)pyridin-3-yl)imidazo[1,2-b]pyridazin-2-yl)-2-(methylamino) acetamide] | < 1000 | < 1000 | < 1000 |  |  |  |
| CC(=O)Nc1cn2cc(-c3cnc(N)c(Oc4ccc(F)cc4)n3)ccc2n1 [Example 63, N-(6-(5-amino-6-(4-fluorophenoxy)pyrazin-2-yl)imidazo[1,2-a]pyridin-2-yl)acetamide] | < 1000 | < 1000 | < 1000 |  |  |  |
| CC(=O)Nc1cn2cc(-c3cnc(N)c(OC4CCC4)n3)ccc2n1 [Example 64, N-(6-(5-amino-6-cyclobutoxy-pyrazin-2-yl)imidazo[1,2-a]pyridin-2-yl)acetamide] | < 1000 | < 1000 | < 1000 |  |  |  |
| CC(=O)Nc1cn2cc(-c3cnc(N)c(Oc4cccc(F)c4)n3)ccc2n1 [Example 65, N-(6-(5-amino-6-(3-fluorophenoxy)pyrazin-2-yl)imidazo[1,2-a]pyridin-2-yl)acetamide] | < 1000 | < 1000 | < 1000 |  |  |  |
| CN(C)CCCC(=O)Nc1cn2nc(-c3cnc(N)c(C(F)(F)F)c3)ccc2n1 [Example 66, N-(6-(6-amino-5-(trifluoromethyl)pyridin-3-yl)imidazo[1,2-b]pyridazin-2-yl)-4-(dimethylamino) butanamide] | < 1000 | < 1000 | < 1000 |  |  |  |
| CC(=O)Nc1cn2cc(-c3cnc(N)c(OC4CN(C(=O)OC(C)(C)C)C4)n3)ccc2n1 [Example 67, tert-butyl 3-(6-(2-acetamido-imidazo[1,2-a]pyridin-6-yl)-3-aminopyrazin-2-yloxy)axetidine-1-carboxylate] | < 1000 | < 1000 | < 1000 |  |  |  |
| CC(=O)Nc1nc2ccc(-c3cnc(N)c(C(F)(F)F)c3)cn2c1C#Cc1ccncc1 [Example 68, N-(6-(6-amino-5-(trifluoromethyl)pyridin-3-4-ylethynyl)imi-dazo[1,2-a]pyridin-2-yl)acetamide] |  |  |  | < 1000 | < 1000 | < 1000 |
| Nc1ncc(-c2ccc3nc(NC(=O)CO[C@@H]4CCNC4)cn3n2)cc1C(F)(F)F [Example 69, (R)-N-(6-(6-amino-5-(trifluoromethyl)pyridin-3-yl)imidazo[1,2-b]pyridazin-2-yl)-2-(pyrrolidin-3-yloxy)acetamide] | < 1000 | < 1000 | < 1000 |  |  |  |
| Nc1ncc(-c2ccc3nc(NC(=O)CCCN4CCCCC4)cn3n2)cc1C(F)(F)F [Example 71, N-(6-(6-amino-5-(trifluoromethyl)pyridin-3-yl)imidazo[1,2-b]pyridazin-2-yl)-4-(piperidin-1-yl)butanamide] | < 1000 | < 1000 | < 1000 |  |  |  |
| CC(=O)Nc1cn2nc(-c3cnc(N)c(OC(F)F)c3)ccc2n1 [Example 72, N-(6-(6-amino-5-(difluoromethoxy)pyridin-3-yl)imidazo[1,2-b]pyridazin-2-yl)acetamide] | < 1000 | < 1000 | < 1000 |  |  |  |
| COCCCOc1nc(-c2ccc3nc(NC(C)=O)cn3c2)cnc1N [Example 73] | < 1000 | < 1000 | < 1000 |  |  |  |
| COCC(=O)Nc1cn2nc(-c3cnc(N)c(C(F)(F)F)c3)ccc2n1 [Example 74, n-(6-(6-amino-5-(trifluoromethyl)pyridin-3-yl)imidazo[1,2-b]pyridazin-2-yl)-2-methoxyacetamide] | < 1000 | < 1000 | < 1000 |  |  |  |
| CC(=O)Nc1cn2cc(-c3cnc(N)c(Oc4ccccc4)n3)ccc2n1 [Example 75, N-(6-(5-amino-6-phenoxypyrazin-2-yl)imidazo[1,2-a]pyridin-2-yl)acetamide] | < 1000 | < 1000 | < 1000 |  |  |  |
| CC(=O)Nc1cn2cc(-c3cnc(N)c(/C=N/NCC(F)(F)F)c3)ccc2n1 [Example 76, (E)-N-(6-(6-amino-5-((2-(2,2,2-trifluoroethyl) hydrazono)methyl)pyridin-3-yl)imidazo[1,2-a]pyridin-2-yl)acetamide] | < 1000 | < 1000 | < 1000 |  |  |  |
